Data: patent publication US12616697B2, “Methods of treatment with myosin modulator” (MyoKardia, Inc., priority 2020, dated 2026)

What was measured:
[1] = system: Yucatan mini-pigs with a heterozygous MYH7 R403Q mutation; experiment: Chronic MYK-581 in mini-pig genetic model of non-obstructed HCM (cMR imaging, invasive hemodynamics, dobutamine challenge); type: in vivo
Protocol: The mini-pigs were treated for at least 12 weeks and were evaluated as shown in Schematic 1 below. […] After ˜14 weeks of treatment, all pigs underwent in vivo cMR imaging for the assessment of LV function and geometry, as well as of myocardial composition via of Late Gadolinium Enhancement (LGE) and T1 mapping techniques including extracellular volume (ECV) assessments. In addition, a subset of animals (MYK: n=6, CTRL: n=5) also underwent terminal invasive hemodynamics assessments, including cardiac output (CO, via thermodilution), load-independent systolic/diastolic function (via LV pressure-volume relationships), and β-adrenergic (β-AR) cardiac reserve (via dobutamine at 5 ug/kg/min IV).
The mini-pig model can be obtained following the method disclosed in a presentation entitled “A Minipig Genetic Model of Hypertrophic Cardiomyopathy Uncovers the Pathophysiological Mechanisms of Disease Evolution”, by E. Green et al., at University of Iowa, Carver College of Medicine.

[2] = molecular target: T1, bovine cardiac synthetic myosin filaments (Bos taurus, UniProt Q9BE39); experiment: DRX/SRX ATPase rate and SRX population in cardiac synthetic myosin filaments; type: biochemical; conditions: over a range of concentrations; the two compounds compared
T1 construct: bovine cardiac synthetic myosin filaments; from tissue; host or cells: bovine heart (inferred from 'bovine cardiac'; the preparation is not described)
T1 sequence (Q9BE39 whole entry): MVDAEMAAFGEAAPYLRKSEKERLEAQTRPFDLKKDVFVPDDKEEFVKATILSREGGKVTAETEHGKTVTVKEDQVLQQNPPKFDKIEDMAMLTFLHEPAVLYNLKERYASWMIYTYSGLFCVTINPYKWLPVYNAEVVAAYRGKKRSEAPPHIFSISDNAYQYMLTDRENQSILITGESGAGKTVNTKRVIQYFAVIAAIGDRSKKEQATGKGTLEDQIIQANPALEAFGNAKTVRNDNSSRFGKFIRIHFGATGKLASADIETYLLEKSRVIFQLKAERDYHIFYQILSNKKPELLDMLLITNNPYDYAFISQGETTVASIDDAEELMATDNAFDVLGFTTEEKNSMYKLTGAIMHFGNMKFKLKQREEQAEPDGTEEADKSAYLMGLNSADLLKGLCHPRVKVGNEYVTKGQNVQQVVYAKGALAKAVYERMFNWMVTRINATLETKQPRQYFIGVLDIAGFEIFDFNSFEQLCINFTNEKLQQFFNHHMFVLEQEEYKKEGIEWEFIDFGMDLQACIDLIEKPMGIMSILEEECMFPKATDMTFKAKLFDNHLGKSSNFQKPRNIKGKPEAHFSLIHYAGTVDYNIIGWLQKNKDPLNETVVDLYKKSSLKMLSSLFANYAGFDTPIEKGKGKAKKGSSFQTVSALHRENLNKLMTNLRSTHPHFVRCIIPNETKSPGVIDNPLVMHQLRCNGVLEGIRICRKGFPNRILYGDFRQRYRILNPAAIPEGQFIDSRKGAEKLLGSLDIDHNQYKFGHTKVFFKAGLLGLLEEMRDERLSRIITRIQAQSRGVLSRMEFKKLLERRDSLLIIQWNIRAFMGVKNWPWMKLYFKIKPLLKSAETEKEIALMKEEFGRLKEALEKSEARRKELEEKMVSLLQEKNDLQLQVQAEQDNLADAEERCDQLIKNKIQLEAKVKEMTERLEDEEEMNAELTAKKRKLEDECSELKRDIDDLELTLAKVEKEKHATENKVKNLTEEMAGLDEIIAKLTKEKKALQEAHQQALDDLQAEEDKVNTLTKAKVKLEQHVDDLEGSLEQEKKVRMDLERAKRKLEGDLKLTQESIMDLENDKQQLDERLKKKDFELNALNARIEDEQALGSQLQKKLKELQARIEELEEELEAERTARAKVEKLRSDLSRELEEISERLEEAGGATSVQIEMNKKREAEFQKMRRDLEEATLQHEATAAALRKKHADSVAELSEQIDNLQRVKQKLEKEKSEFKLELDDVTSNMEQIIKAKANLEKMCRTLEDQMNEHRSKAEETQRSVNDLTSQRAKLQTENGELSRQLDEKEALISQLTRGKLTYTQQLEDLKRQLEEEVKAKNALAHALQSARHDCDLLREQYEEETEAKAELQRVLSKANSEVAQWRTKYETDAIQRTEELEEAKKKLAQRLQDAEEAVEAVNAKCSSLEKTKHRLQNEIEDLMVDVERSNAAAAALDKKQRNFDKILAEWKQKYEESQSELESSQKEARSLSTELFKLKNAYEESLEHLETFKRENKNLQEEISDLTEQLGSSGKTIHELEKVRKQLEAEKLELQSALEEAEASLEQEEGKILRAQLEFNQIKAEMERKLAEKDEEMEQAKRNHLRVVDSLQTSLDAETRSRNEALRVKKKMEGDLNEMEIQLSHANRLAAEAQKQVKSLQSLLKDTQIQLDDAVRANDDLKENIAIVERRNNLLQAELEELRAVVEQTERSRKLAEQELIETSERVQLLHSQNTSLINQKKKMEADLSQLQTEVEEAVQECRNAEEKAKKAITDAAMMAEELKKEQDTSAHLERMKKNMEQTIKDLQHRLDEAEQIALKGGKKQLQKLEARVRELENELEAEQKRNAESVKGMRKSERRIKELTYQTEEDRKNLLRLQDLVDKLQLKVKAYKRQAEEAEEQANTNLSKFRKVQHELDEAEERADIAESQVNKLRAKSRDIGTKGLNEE
T1 sequence (P85100 whole entry partner): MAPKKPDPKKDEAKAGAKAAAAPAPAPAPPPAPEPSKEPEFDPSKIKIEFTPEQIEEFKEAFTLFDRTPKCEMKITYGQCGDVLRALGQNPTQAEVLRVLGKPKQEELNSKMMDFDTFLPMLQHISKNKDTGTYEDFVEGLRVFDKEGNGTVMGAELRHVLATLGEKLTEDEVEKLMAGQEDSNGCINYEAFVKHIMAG
T1 sequence (Q3SZE5 whole entry partner): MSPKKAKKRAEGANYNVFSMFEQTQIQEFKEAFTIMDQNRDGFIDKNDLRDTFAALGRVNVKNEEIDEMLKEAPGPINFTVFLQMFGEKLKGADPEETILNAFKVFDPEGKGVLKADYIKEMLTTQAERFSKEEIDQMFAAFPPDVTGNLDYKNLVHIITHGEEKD

[3] = system: conscious Sprague-Dawley rats; experiment: Mavacamten-induced cardio-depression with positive inotropic challenges, echocardiography; type: in vivo, rat; conditions: inotropic challenge 3 hrs after MAVA 4 mg/kg PO
Protocol: Methods: The responsiveness of mavacamten-induced cardio-depression to positive inotropic challenges was assessed in a set of conscious Sprague-Dawley rats. In these animals, functional reserve was assessed via either dobutamine (+DOB, 10 ug/kg/min IV for 10 min, n=7) or levosimendan (+LEVO, 0.3 μmol/kg IV over […]; n=6) challenges given 3 hrs following a single-dose administration of MAVA (at 4 mg/kg, PO). Cardiac function/geometry were recorded and compared at three separate time-points/days: prior to dosing (i.e., at baseline) and at 3 hrs post-dosing both before as well as during the inotropic challenge; in order to account for the levosimendan-induced changes in loading conditions, an additional echocardiographic examination was performed following acute preload-restoration in LEVO-treated rats (+LEVO/F, 0.9% NaCl at 30 mL/kg/hr IV).
In these experiments, left-ventricular fractional shortening (FS), an index of systolic performance, as well as LV dimensions/volumes and heart rates were measured using a high-frequency transducer and parasternal long-axis transthoracic views (Vevo2100, VisualSonic). FS was defined as the end-diastole normalized change in internal dimensions/diameter of the left ventricle between end-systole (LVESd) and end-diastole (LVEDd) (i.e., FS=100·[LVEDd−LVESd]/LVEDd). LV volumes were derived assuming a Teichholz model (LVV=7·[2.4+LVid]−1·LVid3).

[4] = system: conscious fully-instrumented dogs with normal cardiac function; experiment: Cardiac reserve under acute β-AR (dobutamine) challenges in conscious instrumented dogs; type: in vivo, dog; conditions: before and under acute mavacamten treatment
Protocol: In addition, the effects of MAVA (at 1.5 mg/kg PO, via gavage) on cardiac reserve were evaluated via acute β-AR challenges (dobutamime: 2, 5, and 10 ug/kg/min IV) in conscious fully-instrumented (LVPV group) dogs with normal cardiac function (n=8). These challenges were performed before/after dosing (+3-hour) in control- and MAVA-treated animals both under normal cardiac physiological conditions (n=4) and under (mild) concomitant cardio-depression induced via either selective β-AR blockade (+BB, metoprolol 0.5±0.1 mg/kg PO tid; n=4) or L-type Ca2+-channel blockade (+CCB, verapamil at 5±1 mg/kg PO tid; n=4); pharmacological blockades were established for 7 days prior to the MAVA treatment. Both peak and dose-responses were evaluated at steady state.
Throughout these experiments, analog signals were digitally acquired (1000 Hz) and recorded continuously with a data acquisition/analysis system (IOX; EMKA Technologies). Heart rate (HR), end-systolic (ESP) and end-diastolic pressures (EDP), as well as the peak rates of pressure rise/decline (dP/dtmax and dP/dtmin), the contractility index (CI: dP/dt/P at dP/dtmax), and the time-constant of myocardial relaxation (tau1/2, time for 50% decay from dP/dtmin) were derived from the LV pressure signal. Meanwhile, the end-systolic (ESV) and end-diastolic volumes (EDV) were measured from the LV volume signal derived from the implanted myocardial crystals. LV volumes were derived assuming a Teichholz model, and stroke volume (SV=EDV−ESV), ejection fraction (EF=SV/EDV), as well as cardiac output (CO=SV·HR) were calculated; in a subset of animals, SV and CO values were verified from data derived from the implanted aortic flow […]. […] The slopes of the preload-recruitable stroke work (PRSW; stroke work vs. EDV) and the end-systolic pressure-volume relationships (ESPVR; end-systolic elastance, Ees) were derived by software using linear models (IOX; EMKA Technologies), and were used as load-independent inotropic indices. Ventricular load was estimated by the effective arterial elastance (Ea=ESP/SV). […]

anaesthetized rats = experiment: Counteraction of mavacamten effects in anaesthetized rats in vivo; design: species or system rat
Text: (§1) Additional supportive measures, e.g., intravenous volume supplementation and/or the use of arterial vasoconstrictor agents (a adrenergic agonists) may complement the use of a β adrenergic agonist.

[5] = system: isolated adult rat ventricular myocytes; experiment: Counteraction of mavacamten effects in isolated myocytes in vitro; type: cell-based
Text: as §1

CC(C)n1c(=O)cc(N[C@@H](C)c2cccc(F)c2)[nH]c1=O [MYK-581, (S)-6-((1-(3-fluorophenyl)ethyl)amino)-3-isopropylpyrimidine-2,4(1H,3H)-dione]
CO (cardiac output) ([1]; chronic treatment): preserving CO
CO change, β-AR cardiac reserve ([1]; dobutamine challenge, control +26±2): +60±8%
T1-times ([1]; vs control): lower T1-times
DRX ATPase rate and SRX ATPase Rate (as a fraction of control) [2]: similar

CC(CCc1ccc(O)cc1)NCCc1ccc(O)c(O)c1 (stereo not drawn) [dobutamine]
echocardiography-derived indices of systolic function after mavacamten [3]: successfully rescued/restored
stroke-volume/cardiac output recruitments [4]: comparable stroke-volume/cardiac output recruitments
pharmacologic effects of mavacamten counteracted (anaesthetized rats): can be counteracted

CC(C)NCC(O)c1ccc(O)c(O)c1 (stereo not drawn) [isoproterenol]
pharmacologic effects of mavacamten counteracted [5]: can be counteracted

C[C@@H]1CC(=O)NN=C1c1ccc(NN=C(C#N)C#N)cc1 [levosimendan]
echocardiography-derived indices of systolic function after mavacamten [3]: successfully rescued/restored
